Literature values in article PMC8197769 (Progress in retinal and eye research, 2020).
Read-outs that look alike come from different tables or passages of the source. Blank lines part the entries; values can stand above or below the molecule they belong to.

Columns and labels:
[1] = tested on: patients with geographic atrophy; details: intravitreal; ref Gensler et al., 2018
[2] = tested on: patients with geographic atrophy; details: ref Jaffe et al., 2020
[3] = tested on: patients with geographic atrophy; details: ref Holz et al., 2018
[4] = tested on: patients with paroxysmal nocturnal hemoglobinuria
[5] = tested on: patients with geographic atrophy; details: ref Liao et al., 2020
drusen = details: intravitreal injection, preliminary studies; ref Chi et al., 2010
[6] = tested on: patients with geographic atrophy; details: 5 mg monthly vs. sham, 150 patients; ref NCT01527500
[7] = intravitreal injection, phase I; ref NCT01255462

Molecule: CO[C@H]1C[C@@H]2CC[C@@H](C)[C@@](O)(O2)C(=O)C(=O)N2CCCC[C@H]2C(=O)O[C@H]([C@H](C)C[C@@H]2CC[C@@H](O)[C@H](OC)C2)CC(=O)[C@H](C)/C=C(\C)[C@@H](O)[C@@H](OC)C(=O)[C@H](C)C[C@H](C)/C=C/C=C/C=C/1C [sirolimus]
efficacy for GA [1]: did not suggest efficacy for GA

endophthalmitis [2]: no cases of endophthalmitis
Molecule: avacincaptad pegol

Molecule: lampalizumab: fragment of humanized monoclonal antibody, inhibits Factor D
phase III outcome for GA [3]: negative results

Molecule: pegcetacoplan
safety during prolonged and systemic clinical intervention ([4]; human, in vivo): acceptable safety profiles
efficacy in paroxysmal nocturnal hemoglobinuria ([4]; phase III, ref Apellis Pharmaceuticals, 2020, Castro et al.): showed efficacy
investigator-determined conversion to exudative AMD ([5]; every other month group (sham 1.2%)): 8.9%
investigator-determined conversion to exudative AMD ([5]; monthly group (sham 1.2%)): 20.9%

Molecule: compstatin
effect on drusen (drusen): may cause drusen regression

B1: tesidolumab: IgG1 antibody that prevents C5 cleavage (antibody, chains of the INN, looked up, V domains shown)
VH: EVQLVQSGAEVKKPGSSVKVSCKASGGTFSSYAISWVRQAPGQGLEWMGGIGPFFGTANYAQKFQGRVTITADESTSTAYMELSSLRSEDTAVYYCARDTPYFDYWGQGTLVTVSS
VL: SYELTQPLSVSVALGQTARITCSGDSIPNYYVYWYQQKPGQAPVLVIYDDSNRPSGIPERFSGSNSGNTATLTISRAQAGDEADYYCQSFDSSLNAEVFGGGTKLTVL
benefit for GA or vision [6]: No benefit
safety [7]: No significant safety events were seen
